IC50 data for seven molecules are collected here from patent US8765814B2, “N-hydroxyformamide derivative and medicament containing same” (Kaken Pharmaceutical Co., Ltd., priority 2010, dated 2014).

One experiment deals with T1, ADAM10 (Homo sapiens, UniProt O14672).
T1 construct: made in house; host or cells: mammal cells or insect cells (not specified which)
T1 sequence (O14672 214-748): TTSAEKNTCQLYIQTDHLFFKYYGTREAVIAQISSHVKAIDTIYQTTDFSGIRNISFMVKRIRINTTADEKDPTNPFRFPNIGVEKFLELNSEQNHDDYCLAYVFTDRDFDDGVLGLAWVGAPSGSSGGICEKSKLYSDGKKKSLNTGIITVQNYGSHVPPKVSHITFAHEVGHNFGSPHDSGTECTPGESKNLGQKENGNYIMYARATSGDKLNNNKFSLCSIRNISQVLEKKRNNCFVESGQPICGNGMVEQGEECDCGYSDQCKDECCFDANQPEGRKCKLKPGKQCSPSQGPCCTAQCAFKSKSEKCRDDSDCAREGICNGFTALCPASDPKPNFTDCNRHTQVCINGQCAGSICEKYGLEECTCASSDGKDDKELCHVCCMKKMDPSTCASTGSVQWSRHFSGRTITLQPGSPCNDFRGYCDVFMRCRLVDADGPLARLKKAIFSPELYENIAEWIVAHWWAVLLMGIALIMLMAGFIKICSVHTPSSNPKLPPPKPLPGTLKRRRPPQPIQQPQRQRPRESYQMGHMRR
The experiment in a line: ADAM10 inhibition test. It counts as biochemical. The following applies: recombinant ADAM10 (cDNA from THP-1 cells), fluorescent synthetic substrate Nma-[…]Dnp-D-Arg-NH2, 25° C., 5 hours; read-out: IC50 Value (50% inhibitory concentration against ADAM10). An excerpt:
The cDNA of ADAM10 was obtained from THP-1 cells in the usual way, and this was inserted into an expression vector, and thereafter the vector was transformed in mammal cells or insect cells to thereby make the cells express ADAM10. In the ADAM10 inhibition test, ADAM10 obtained in the manner as above was used as an enzyme, and a fluorescent synthetic substrate Nma (N-methylanthranylic acid)-[…]Dnp (dinitrophenyl)-D-Arg-NH2 was used as the substrate. Using these in the test, the ADAM10 activity in the presence or absence of the test substance was measured. The method of ADAM10 inhibition test is mentioned below.
Concretely, 90 μl of an enzyme liquid prepared using an assay buffer A (50 mM tris-hydrochloride buffer (pH 7.5) containing 200 mM sodium chloride, 5 mM calcium chloride, 10 μM zinc sulfate, 0.004% sodium azide, and 2 mg/mL bovine serum albumin), and 90 μL a fluorescent synthetic substrate as prepared to be 20 μM in an assay buffer B (50 mM tris-hydrochloride buffer (pH 7.5) containing 200 mM sodium chloride, 5 mM calcium chloride, 10 μM zinc sulfate, 0.004% sodium azide, and 0.05% PLURONIC F-68) were mixed, and reacted at 25° C. for 5 hours. Subsequently, using a fluorescent intensity meter (Fluoroskan Ascent), the reaction liquid was analyzed at an excitation wavelength of 355 nm and at a measuring wavelength of 460 nm to determine the enzymatic activity therein.
(§1) From the enzymatic activity in the presence or absence of the test compound, the inhibitory percentage was determined, and the 50% inhibitory concentration (IC50) of the test compound was calculated.
The 50% inhibitory concentration against ADAM10 of the N-hydroxyformamide derivative of the invention, as determined in this test, was shown in Table 2.

Another experiment deals with T2, ADAM17 (Homo sapiens, UniProt P78536).
T2 construct: made in house; host or cells: mammal cells or insect cells (not specified which)
T2 sequence (P78536 215-824): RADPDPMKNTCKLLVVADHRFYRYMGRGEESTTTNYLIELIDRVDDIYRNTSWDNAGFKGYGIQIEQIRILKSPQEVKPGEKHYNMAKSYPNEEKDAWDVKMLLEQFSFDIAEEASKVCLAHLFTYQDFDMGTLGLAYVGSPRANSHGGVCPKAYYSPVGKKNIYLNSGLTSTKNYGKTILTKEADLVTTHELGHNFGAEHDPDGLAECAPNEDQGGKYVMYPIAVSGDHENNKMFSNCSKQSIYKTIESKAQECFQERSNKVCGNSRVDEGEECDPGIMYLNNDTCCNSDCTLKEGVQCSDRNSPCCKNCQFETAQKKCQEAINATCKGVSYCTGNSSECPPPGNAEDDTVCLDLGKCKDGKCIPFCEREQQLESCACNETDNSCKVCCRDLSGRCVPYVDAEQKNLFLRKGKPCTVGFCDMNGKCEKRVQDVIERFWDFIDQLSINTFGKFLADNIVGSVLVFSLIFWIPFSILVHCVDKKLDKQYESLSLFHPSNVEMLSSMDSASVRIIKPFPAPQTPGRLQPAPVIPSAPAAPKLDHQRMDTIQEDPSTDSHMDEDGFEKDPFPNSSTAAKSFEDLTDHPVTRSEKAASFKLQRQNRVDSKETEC
The experiment in a line: ADAM17 inhibition test. It counts as biochemical. Particulars: recombinant ADAM17 (cDNA from THP-1 cells), fluorescent synthetic substrate Nma-[…]Dnp-D-Arg-NH2, 37° C., 1.5 hours; read-out: IC50 Value (50% inhibitory concentration against ADAM17).
From the text: The nucleotide sequence of ADAM17 was reported by Moss et al. (Moss, M. L. et al., Nature 1997, 385, 733-736). Accordingly, the cDNA was obtained from THP-1 cells of a human monocytic cell line in the usual way, and this was inserted into an expression vector, and thereafter the vector was transformed in mammal cells or insect cells to thereby make the cells express ADAM17.
In the ADAM17 inhibition test, ADAM17 obtained in the manner as above was used as an enzyme, and a fluorescent synthetic substrate Nma (N-methylanthranylic acid)-[…]Dnp (dinitrophenyl)-D-Arg-NH2 containing the ADAM17-cleaved sequence of a membrane-bound TNF was used as the substrate. Using these in the test, the ADAM17 activity in the presence or absence of the test substance was measured. The method of ADAM17 inhibition test is mentioned below.
Concretely, 90 μl of an enzyme liquid as prepared to have 14 units in an assay buffer A (50 mM tris-hydrochloride buffer (pH 7.5) containing 200 mM sodium chloride, 5 mM calcium chloride, 10 μM zinc sulfate, 0.004% sodium azide, and 2 mg/mL bovine serum albumin) (the amount of enzyme capable of decomposing 1 pmol of substrate at 25° C. for 1 minute was defined to be 1 unit), and 90 μL a fluorescent synthetic substrate as prepared to be 20 μM in an assay buffer B (50 mM tris-hydrochloride buffer (pH 7.5) containing 200 mM sodium chloride, 5 mM calcium chloride, 10 μM zinc sulfate, 0.004% sodium azide, and 0.05% PLURONIC F-68) were mixed, and reacted at 37° C. for 1.5 hours. Subsequently, using a fluorescent intensity meter (Fluoroskan Ascent), the reaction liquid was analyzed at an excitation wavelength of 355 nm and at a measuring wavelength of 460 nm to determine the enzymatic activity therein.
as §1
The 50% inhibitory concentration against ADAM17 of the N-hydroxyformamide derivative of the invention, as determined in this test, was shown in Table 1.

In the case of `CC#CCOc1ccc(S(=O)(=O)CC(c2ccc(CN(CC)CC)cc2)N(O)C=O)cc1` (centres unmarked) [Compound I-1, N-[2-(4-But-2-ynyloxybenzenesulfonyl)-1-(4-diethylaminomethylphenyl)ethyl]-N-hydroxyformamide], the IC50 at ADAM10 amounted to 13 nM; at ADAM17, 5.2 nM.

On to `CC#CCOc1ccc(S(=O)(=O)CC(c2ccc(CN(C)C)cc2)N(O)C=O)cc1` (centres unmarked) [Compound I-2, N-[2-(4-But-2-ynyloxybenzenesulfonyl)-1-(4-dimethylaminomethylphenyl)ethyl]-N-hydroxyformamide], for which the IC50 is 22 nM on ADAM10 and 7.2 nM at ADAM17.

Turning to `CC#CCOc1ccc(S(=O)(=O)CC(c2ccc(CNC(=O)COC)cc2)N(O)C=O)cc1` (centres unmarked) [Compound I-3, N-{4-[2-(4-But-2-ynyloxybenzenesulfonyl)-1-(formylhydroxyamino)ethyl]benzyl}-2-methoxyacetamide], the results for the IC50 on ADAM10 and at ADAM17 were 42 nM and 8.2 nM, respectively.

As to `CC#CCOc1ccc(S(=O)(=O)CC(c2ccc(CNS(C)(=O)=O)cc2)N(O)C=O)cc1` (centres unmarked) [Compound I-4, N-{4-[2-(4-But-2-ynyloxybenzenesulfonyl)-1-(formylhydroxyamino)ethyl]benzyl}methanesulfonamide], the IC50 was 40 nM on ADAM10 and 5.8 nM on ADAM17.

Take `CC#CCOc1ccc(S(=O)(=O)CC(c2ccc(CNC(=O)c3ccccc3)cc2)N(O)C=O)cc1` (centres unmarked) [Compound I-5, N-{4-[2-(4-But-2-ynyloxybenzenesulfonyl)-1-(formylhydroxyamino)ethyl]benzyl}benzamide]: the IC50 at ADAM10 was found to be 19 nM; at ADAM17, 7.2 nM.

Turning to `CC#CCOc1ccc(S(=O)(=O)CC(c2ccc(CN3CCOCC3)cc2)N(O)C=O)cc1` (centres unmarked) [Compound I-6, N-[2-(4-But-2-ynyloxybenzenesulfonyl)-1-(4-morpholin-4-ylmethylphenyl)ethyl]-N-hydroxyformamide], the IC50 turned out to be 70 nM at ADAM10 and 18 nM at ADAM17.

As for `CCC#CCOc1ccc(S(=O)(=O)CC(c2ccc(CN3CCOCC3)cc2)N(O)C=O)cc1` (centres unmarked) [Compound I-7, N-Hydroxy-N-[1-(4-morpholin-4-ylmethylphenyl)-2-(4-pent-2-ynyloxybenzenesulfonyl)ethyl]formamide], the IC50 at ADAM10 was determined as 90 nM; at ADAM17 it was 55 nM.
